Experimental data taken from PMC11345829, “Discovery of Potent Isoquinolinequinone N-Oxides to Overcome Cancer Multidrug Resistance” (Journal of Medicinal Chemistry, 2024).

What was measured:
Format in all cases: cell-based, human
[1] = test system: NCI60 tumor cell line panel; assay: NCI60 one-dose screen (10 μM), mean growth; conditions: 48 h, one dose 10 μM, mean cell growth of 60 tumor cell lines; for activity at 10 µM: Homo sapiens
Experimental: S2.1 NCI Screening Assay Experimental details
NCI Screening Assay Experimental: Cancer cell growth assays (NCI60 screening) 5,6 One-dose study: Tested compounds were initially solubilised in DMSO, diluted into RPMI 1640 and 5% fetal bovine serum/L-glutamine, and added to 96-well plates containing cell lines previously cultured for 24 h. After 48 h incubation, the media were removed, and the cells were fixed and stained with sulforhodamine B to determine overall percent growth/ total protein content. Unbound dye was removed with five washes of 1% acetic acid, and the plates were allowed to air dry. The dye was then resolubilised in Tris buffer, and the colorimetric absorbance was measured (515 nm). Growth inhibition was measured relative to the response generated from proliferating cells cultured under identical conditions for 48 h. […]

[2] = test system: NCI-H460/R; assay: SRB cell growth inhibition assay; conditions: for selectivity ratio NSCLC: GI50 sensitive NCI-H460 / GI50 MDR NCI-H460/R; for GI50: Homo sapiens, NCI-H460, 48 h, NSCLC MDR, mean ± SEM; for GI50 / GI50 concentration range against MDR NCI-H460/R: SRB assay; for GI50 concentration range against MDR NCI-H460/R: in words
Experimental: Two distinct pairs of counterpart drug-sensitive and MDR human tumor cell lines were used, namely the non-small lung cancer (NSCLC) NCI-H460 (same cell line as in the NCI screen) and its MDR counterpart cell line NCI-[…] and the colorectal cancer DLD1 and its MDR counterpart cell line DLD1-TxR (Table 3). The screening was performed using the SRB assay, and the GI50 for each compound was determined by interpolation on the attained concentration-response curves and compared with NCI60 screening data (SI, Figures S62-S63; Table S21). Two pairs of drug-sensitive and multidrug-resistant (MDR) cell lines from human nonsmall cell lung cancer (NSCLC), NCI-H460 and NCI-[…], and colorectal cancer, DLD1 and DLD1-TxR, kindly provided by Dr M. […] The A549 cell line was maintained in Dulbecco's Modified Eagle Medium (DMEM) supplemented with 4.5 g/L Glucose with UltraGlutamine with sodium pyruvate (Lonza, Basel Stücki, Switzerland), enriched with 10% fetal bovine serum (FBS; Biowest, Nuaillé, France). […] For the sulforhodamine B (SRB) and 3D cell culture assays, the media were supplemented with 5% FBS. The remaining experiments were performed with medium supplemented with 10% FBS. […] The SRB assay was performed as previously described.[78],[79] Briefly, after fixing cells with 10% (w/v) ice-cold trichloroacetic acid (Merck Life Science), the proteins were stained with 0.4% of SRB (Merck Life Science) in acetic acid (Merck Life Science). Following washing steps in acetic acid, the bound dye was solubilized with 10 mM Tris base solution (Merck Life Science). Absorbance was measured at 510 nm in a multiplate reader (Synergy Mx, Biotek Instruments Inc., Winooski, Vermont, USA) using the Gen5 software (Biotek Instruments Inc.).

[3] = test system: NCI-H460 spheroids; assay: Cell Titer-Glo 3D spheroid viability assay; conditions: 48 h; 25 at 0.35 and 0.7 μM; doxorubicin 50 nM
Excerpt: Figure 12 Effect of compound 25 on the viability of spheroids established from two counterpart pairs of sensitive and MDR cell lines, from NSCLC (NCI-H460 and NCI-H460/R) and colorectal cancer (DLD1 and DLD1-TxR), using MicroTissue 3D Petri dishes. […] (B) Effect of compound 25 on the viability of NCI-H460 spheroids analyzed by Cell Titer-Glo 3D viability assay. (C) Effect of compound 25 on the viability of NCI-H460/R spheroids analyzed with the Cell Titer-Glo 3D viability assay. Results are presented as the % of luciferase luminescence relative to the “blank” cells (medium). […] (E) Effect of compound 25 on the viability of DLD1 spheroids analyzed by Cell Titer-Glo 3D viability assay. (F) Effect of compound 25 on the viability of DLD1-TxR spheroids analyzed with the Cell Titer-Glo 3D viability assay. Data are expressed as mean ± SEM from 3 independent experiments. * p ≤ 0.05 and ** p ≤ 0.01, when comparing DMSO vs compound treatment.
Spheroid formation was conducted in 12-series agarose 3D Petri Dish micromolds (MicroTissues Technology, MicroTissues Inc., Sigma-Aldrich). The agarose micromolds were prepared using 1% agarose in a 0.9% NaCl solution and then placed in 12-well plates and equilibrated with RPMI supplemented with 10% FBS for at least 2 h before cell seeding. Cell suspensions corresponding to 500 cells per spheroid of the NSCLC cell lines (NCI-H460 and NCI-H460/R), and 1000 cells per spheroid of the colorectal cancer cell lines (DLD1 and DLD1-TxR) were seeded in the corresponding micromolds. The choice of cell seeding concentration was based on a previous optimization assay (data not shown), ensuring that at the end of the assay the spheroids would have a size of around 400 μm. A 20 min incubation period was used for cells to settle into the micromolds and additional medium was finally added to the wells. Spheroid formation was monitored with the Leica DMi1 microscope. […] At the end of the treatment, images from at least 8 different spheroids per condition were captured on the Leica Dmi1 microscope, and posteriorly analyzed with the automated open-source software AnaSP.[82] Spheroid parameters, such as equivalent diameter, circularity, and compactness, were calculated.
Spheroid viability was determined through the luminescence-based Cell Titer-Glo 3D cell viability assay (Promega). Spheroids grown on MicroTissues 3D Petri Dish micromolds were exposed to the treatments, as described in the previous section. Then, the spheroids were transferred into 96-well plates in 50 μL of RPMI medium. […] The plate was then incubated in the dark for 5 min with agitation and allowed to rest for 25 min before luminescence measurement. Luminescence was quantified using the microplate reader Synergy MX coupled with the GEN5 software. […]

| Compound | activity at 10 µM [1] [%] | mean growth (%, 10 μM) [1] [%] | selectivity ratio NSCLC [2] | GI50 [2] [µM] | GI50 concentration range against MDR NCI-H460/R [2] | viability of NCI-H460 spheroids [3] |
| --- | --- | --- | --- | --- | --- | --- |
| COC(=O)c1c2c(c(C)[n+]([O-])c1C)C(=O)C(NCc1ccc(O)cc1)=CC2=O [Compound 20] | -21 | -21 | 1.2 | 4.84 ± 0.74 | – | – |
| COC(=O)c1c2c(c(C)[n+]([O-])c1C)C(=O)C(NCc1ccc(F)cc1)=CC2=O [Compound 4] | 18 | – | 1.2 | 2.25 ± 0.27 | – | – |
| COC(=O)c1c2c(c(C)[n+]([O-])c1C)C(=O)C=C(NCc1ccccc1)C2=O [Compound 2] | – | – | 1.7 | 0.83 ± 0.02 | nanomolar range | – |
| COC(=O)c1c2c(c(C)[n+]([O-])c1C)C(=O)C=C(NCc1ccc(F)cc1)C2=O [Compound 5] | -37 | -37 | 1.6 | 0.36 ± 0.11 | nanomolar range | – |
| COC(=O)c1c2c(c[n+]([O-])c1C)C(=O)C=CC2=O [Compound 23] | 44.5 | – | 2.1 | 17.9 ± 3.36 | – | – |
| COC(=O)c1c2c(c[n+]([O-])c1C)C(=O)C=C(NCc1ccccc1)C2=O [Compound 25] | – | – | 1 | 0.34 ± 0.03 | nanomolar range | significant decrease in the viability of the spheroids |
| COc1cccc2c1C(=O)c1c(O)c3c(c(O)c1C2=O)C[C@@](O)(C(=O)CO)C[C@@H]3O[C@H]1C[C@H](N)[C@H](O)[C@H](C)O1 [doxorubicin, reference compound] | – | – | – | 2.46 ± 0.04 | – | did not significantly affect the viability of the spheroids |
| COC(=O)c1c2c(c[n+]([O-])c1C)C(=O)C(NCc1ccccc1)=CC2=O [Compound 24] | -35.1 | -35.1 | 2 | 0.38 ± 0.02 | nanomolar range | – |
